Results: the supplement of paper PMC10307832

Columns and labels:
Assay in all cases: relative viability (nuclei count vs DMSO), 5 days (fraction); higher = more cells survive
NCI-H727 = test system: NCI-H727
Summary of the method: (§1)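 Dosing by pin tool came one day after lung cancer cell lines were seeded in 1536-well plates, using either one drug or a fixed anchor-drug dose plus five library-drug doses (not always all listed) in √10 steps. After 5 days, nuclei were counted on 4× images. Relative viability is treated-well nuclei count divided by vehicle-well nuclei count, and values are medians of duplicate plates.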

COR-L 105 = test system: COR-L 105
Summary of the method: as §1

UMC-11 = test system: UMC-11
Summary of the method: as §1

EKVX = test system: EKVX
Summary of the method: as §1

NCI-H1650 = test system: NCI-H1650
Summary of the method: as §1

H3255 = test system: H3255
Summary of the method: as §1

NCI-H1792 = test system: NCI-H1792
Summary of the method: as §1

HCC-44 = test system: HCC-44
Summary of the method: as §1

NCI-H520 = test system: NCI-H520
Summary of the method: as §1

NCI-H1651 = test system: NCI-H1651
Summary of the method: as §1

NCI-H2087 = test system: NCI-H2087
Summary of the method: as §1

201T = test system: 201T
Summary of the method: as §1

NCI-H1437 = test system: NCI-H1437
Summary of the method: as §1

EPLC-272H = test system: EPLC-272H
Summary of the method: as §1

NCI-H647 = test system: NCI-H647
Summary of the method: as §1

COR-L23 = test system: COR-L23
Summary of the method: as §1

HCC-15 = test system: HCC-15
Summary of the method: as §1

NCI-H1975 = test system: NCI-H1975
Summary of the method: as §1

HCC-827 = test system: HCC-827
Summary of the method: as §1

## Cc1cnc(-c2cnc(NCCNc3ccc(C#N)cn3)nc2-c2ccc(Cl)cc2Cl)[nH]1 + CC1(C)CCC(c2ccc(Cl)cc2)=C(CN2CCN(c3ccc(C(=O)NS(=O)(=O)c4ccc(N[C@H](CCN5CCOCC5)CSc5ccccc5)c(S(=O)(=O)C(F)(F)F)c4)cc3)CC2)C1 [Navitoclax] (partner 0.5 µM)
NCI-H727; first compound 0.08 µM
  relative viability: 0.45
NCI-H727; first compound 0.253 µM
  relative viability: 0.432
NCI-H727; first compound 0.8 µM
  relative viability: 0.476
NCI-H727; first compound 2.53 µM
  relative viability: 0.364
COR-L 105; first compound 0.08 µM
  relative viability: 0.875
COR-L 105; first compound 0.253 µM
  relative viability: 0.686
COR-L 105; first compound 0.8 µM
  relative viability: 1.54
COR-L 105; first compound 2.53 µM
  relative viability: 0.558
UMC-11; first compound 0.08 µM
  relative viability: 0.341
UMC-11; first compound 0.253 µM
  relative viability: 0.295
UMC-11; first compound 0.8 µM
  relative viability: 0.304
UMC-11; first compound 2.53 µM
  relative viability: 0.324
EKVX; first compound 0.08 µM
  relative viability: 0.715
EKVX; first compound 0.253 µM
  relative viability: 0.844
EKVX; first compound 0.8 µM
  relative viability: 0.905
EKVX; first compound 2.53 µM
  relative viability: 0.814
NCI-H1650; first compound 0.08 µM
  relative viability: 1.13
NCI-H1650; first compound 0.253 µM
  relative viability: 1.05
NCI-H1650; first compound 0.8 µM
  relative viability: 1.42
NCI-H1650; first compound 2.53 µM
  relative viability: 1.21
H3255; first compound 0.08 µM
  relative viability: 0.413
H3255; first compound 0.253 µM
  relative viability: 0.424
H3255; first compound 0.8 µM
  relative viability: 0.508
H3255; first compound 2.53 µM
  relative viability: 0.361
NCI-H1792; first compound 0.08 µM
  relative viability: 0.624
NCI-H1792; first compound 0.253 µM
  relative viability: 0.577
NCI-H1792; first compound 0.8 µM
  relative viability: 0.601
NCI-H1792; first compound 2.53 µM
  relative viability: 0.568
HCC-44; first compound 0.08 µM
  relative viability: 1.05
HCC-44; first compound 0.253 µM
  relative viability: 0.792
HCC-44; first compound 0.8 µM
  relative viability: 0.971
HCC-44; first compound 2.53 µM
  relative viability: 1.03
NCI-H520; first compound 0.08 µM
  relative viability: 1.22
NCI-H520; first compound 0.253 µM
  relative viability: 1.13
NCI-H520; first compound 0.8 µM
  relative viability: 1.24
NCI-H520; first compound 2.53 µM
  relative viability: 1.13
NCI-H1651; first compound 0.08 µM
  relative viability: 1.09
NCI-H1651; first compound 0.253 µM
  relative viability: 0.874
NCI-H1651; first compound 0.8 µM
  relative viability: 1.06
NCI-H1651; first compound 2.53 µM
  relative viability: 1.2
NCI-H2087; first compound 0.08 µM
  relative viability: 0.88
NCI-H2087; first compound 0.253 µM
  relative viability: 0.966
NCI-H2087; first compound 0.8 µM
  relative viability: 1.03
NCI-H2087; first compound 2.53 µM
  relative viability: 0.967
201T; first compound 0.08 µM
  relative viability: 1.19
201T; first compound 0.253 µM
  relative viability: 1.17
201T; first compound 0.8 µM
  relative viability: 1.2
201T; first compound 2.53 µM
  relative viability: 1.23
NCI-H1437; first compound 0.08 µM
  relative viability: 1.1
NCI-H1437; first compound 0.253 µM
  relative viability: 1.05
NCI-H1437; first compound 0.8 µM
  relative viability: 1.12
NCI-H1437; first compound 2.53 µM
  relative viability: 1.12
EPLC-272H; first compound 0.08 µM
  relative viability: 1.22
EPLC-272H; first compound 0.253 µM
  relative viability: 1.31
EPLC-272H; first compound 0.8 µM
  relative viability: 1.12
EPLC-272H; first compound 2.53 µM
  relative viability: 1.07
NCI-H647; first compound 0.08 µM
  relative viability: 1.19
NCI-H647; first compound 0.253 µM
  relative viability: 0.718
NCI-H647; first compound 0.8 µM
  relative viability: 1.07
NCI-H647; first compound 2.53 µM
  relative viability: 0.723
COR-L23; first compound 0.08 µM
  relative viability: 1.07
COR-L23; first compound 0.253 µM
  relative viability: 1.03
COR-L23; first compound 0.8 µM
  relative viability: 1.09
COR-L23; first compound 2.53 µM
  relative viability: 1.06
HCC-15; first compound 0.08 µM
  relative viability: 0.737
HCC-15; first compound 0.253 µM
  relative viability: 0.622
HCC-15; first compound 0.8 µM
  relative viability: 0.65
HCC-15; first compound 2.53 µM
  relative viability: 0.578
NCI-H1975; first compound 0.08 µM
  relative viability: 1.12
NCI-H1975; first compound 0.253 µM
  relative viability: 0.982
NCI-H1975; first compound 0.8 µM
  relative viability: 0.933
NCI-H1975; first compound 2.53 µM
  relative viability: 0.567
HCC-827; first compound 0.08 µM
  relative viability: 1.04
HCC-827; first compound 0.8 µM
  relative viability: 1.05
HCC-827; first compound 2.53 µM
  relative viability: 1.05

## O=C(O)CCCCC(CCSCc1ccccc1)SCc1ccccc1 (stereo not given) [CPI-613] + CC1(C)CCC(c2ccc(Cl)cc2)=C(CN2CCN(c3ccc(C(=O)NS(=O)(=O)c4ccc(N[C@H](CCN5CCOCC5)CSc5ccccc5)c(S(=O)(=O)C(F)(F)F)c4)cc3)CC2)C1 [Navitoclax] (partner 0.5 µM)
NCI-H727; first compound 5 µM
  relative viability: 0.386
NCI-H727; first compound 15.81 µM
  relative viability: 0.337
NCI-H727; first compound 50 µM
  relative viability: 0.331
NCI-H727; first compound 158.11 µM
  relative viability: 0.0645
NCI-H727; first compound 500 µM
  relative viability: 0.046
COR-L 105; first compound 5 µM
  relative viability: 0.847
COR-L 105; first compound 15.81 µM
  relative viability: 0.776
COR-L 105; first compound 50 µM
  relative viability: 0.719
COR-L 105; first compound 158.11 µM
  relative viability: 0.297
COR-L 105; first compound 500 µM
  relative viability: 0.286
UMC-11; first compound 5 µM
  relative viability: 0.28
UMC-11; first compound 15.81 µM
  relative viability: 0.324
UMC-11; first compound 50 µM
  relative viability: 0.278
UMC-11; first compound 158.11 µM
  relative viability: 0.143
UMC-11; first compound 500 µM
  relative viability: 0.0935
EKVX; first compound 5 µM
  relative viability: 0.945
EKVX; first compound 15.81 µM
  relative viability: 0.875
EKVX; first compound 50 µM
  relative viability: 0.898
EKVX; first compound 158.11 µM
  relative viability: 0.483
EKVX; first compound 500 µM
  relative viability: 0.951
NCI-H1650; first compound 5 µM
  relative viability: 1.17
NCI-H1650; first compound 15.81 µM
  relative viability: 1.25
NCI-H1650; first compound 50 µM
  relative viability: 1.08
NCI-H1650; first compound 158.11 µM
  relative viability: 0.16
NCI-H1650; first compound 500 µM
  relative viability: 0.034
H3255; first compound 5 µM
  relative viability: 0.497
H3255; first compound 15.81 µM
  relative viability: 0.476
H3255; first compound 50 µM
  relative viability: 0.337
H3255; first compound 158.11 µM
  relative viability: 0.498
H3255; first compound 500 µM
  relative viability: 0.562
NCI-H1792; first compound 5 µM
  relative viability: 0.518
NCI-H1792; first compound 15.81 µM
  relative viability: 0.595
NCI-H1792; first compound 50 µM
  relative viability: 0.603
NCI-H1792; first compound 158.11 µM
  relative viability: 0.411
NCI-H1792; first compound 500 µM
  relative viability: 0.601
HCC-44; first compound 5 µM
  relative viability: 1.03
HCC-44; first compound 15.81 µM
  relative viability: 1.08
HCC-44; first compound 50 µM
  relative viability: 1.07
HCC-44; first compound 158.11 µM
  relative viability: 0.322
HCC-44; first compound 500 µM
  relative viability: 0.0385
NCI-H520; first compound 5 µM
  relative viability: 0.932
NCI-H520; first compound 15.81 µM
  relative viability: 1.1
NCI-H520; first compound 50 µM
  relative viability: 1.18
NCI-H520; first compound 158.11 µM
  relative viability: 0.355
NCI-H520; first compound 500 µM
  relative viability: 0.154
NCI-H1651; first compound 5 µM
  relative viability: 1.04
NCI-H1651; first compound 15.81 µM
  relative viability: 0.866
NCI-H1651; first compound 50 µM
  relative viability: 1
NCI-H1651; first compound 158.11 µM
  relative viability: 0.17
NCI-H1651; first compound 500 µM
  relative viability: 0.152
NCI-H2087; first compound 5 µM
  relative viability: 1.03
NCI-H2087; first compound 15.81 µM
  relative viability: 0.953
NCI-H2087; first compound 50 µM
  relative viability: 0.926
NCI-H2087; first compound 158.11 µM
  relative viability: 0.135
NCI-H2087; first compound 500 µM
  relative viability: 0.0127
201T; first compound 5 µM
  relative viability: 1.23
201T; first compound 15.81 µM
  relative viability: 1.2
201T; first compound 50 µM
  relative viability: 1.17
201T; first compound 158.11 µM
  relative viability: 1.14
201T; first compound 500 µM
  relative viability: 1.09
NCI-H1437; first compound 5 µM
  relative viability: 1.03
NCI-H1437; first compound 15.81 µM
  relative viability: 0.957
NCI-H1437; first compound 50 µM
  relative viability: 1.03
NCI-H1437; first compound 158.11 µM
  relative viability: 0.199
NCI-H1437; first compound 500 µM
  relative viability: 0.0367
EPLC-272H; first compound 5 µM
  relative viability: 1.24
EPLC-272H; first compound 15.81 µM
  relative viability: 0.897
EPLC-272H; first compound 50 µM
  relative viability: 1.11
EPLC-272H; first compound 158.11 µM
  relative viability: 0.86
EPLC-272H; first compound 500 µM
  relative viability: 0.765
NCI-H647; first compound 5 µM
  relative viability: 1.05
NCI-H647; first compound 15.81 µM
  relative viability: 1.11
NCI-H647; first compound 50 µM
  relative viability: 0.963
NCI-H647; first compound 158.11 µM
  relative viability: 0.875
NCI-H647; first compound 500 µM
  relative viability: 0.238
COR-L23; first compound 5 µM
  relative viability: 1.07
COR-L23; first compound 15.81 µM
  relative viability: 0.913
COR-L23; first compound 50 µM
  relative viability: 0.987
COR-L23; first compound 158.11 µM
  relative viability: 0.327
COR-L23; first compound 500 µM
  relative viability: 0.0196
HCC-15; first compound 5 µM
  relative viability: 0.625
HCC-15; first compound 15.81 µM
  relative viability: 0.68
HCC-15; first compound 50 µM
  relative viability: 0.612
HCC-15; first compound 158.11 µM
  relative viability: 0.309
HCC-15; first compound 500 µM
  relative viability: 0.278
NCI-H1975; first compound 5 µM
  relative viability: 0.988
NCI-H1975; first compound 15.81 µM
  relative viability: 1.1
NCI-H1975; first compound 50 µM
  relative viability: 1.08
NCI-H1975; first compound 158.11 µM
  relative viability: 0.816
NCI-H1975; first compound 500 µM
  relative viability: 0.0403
HCC-827; first compound 5 µM
  relative viability: 0.983
HCC-827; first compound 15.81 µM
  relative viability: 0.96
HCC-827; first compound 50 µM
  relative viability: 0.877
HCC-827; first compound 158.11 µM
  relative viability: 0.414
HCC-827; first compound 500 µM
  relative viability: 0.065
